# Data published in the C3SDB collision cross section collection.
# “And” between values parts separate entries of the source, which are not always exact repeats. Equal entries are not always repeated.
# How the values were obtained:
# [1] = instrument: DT, single field, calibrated with Agilent tune mix (Agilent)
# [2] = instrument: DT, single field, calibrated with ESI Low Concentration Tuning Mix (Agilent)
# [3] = instrument: TW, calibrated with polyalanine and drug standards
Structure (SMILES),collision cross section (N2) ([1]; [M-H]-) [Å²],collision cross section (N2) ([2]; [M+Na]+),collision cross section (N2) ([2]; [M-H]-) [Å²],also measured
NC(Cc1ccccc1O)C(=O)O (racemic) [DL-O-tyrosine],134.25,,,collision cross section (N2) ([1]; [M+H]+): 141.4 Å²
"Cn1c(=O)[nH]c2[nH]c(=O)n(C)c2c1=O [1,7-Dimethyluric acid]",134.06,,,
CC(=O)[C@@H](O)[C@H](O)COP(=O)(O)O [1-Deoxy-D-xylulose 5-phosphate],134.48,,,collision cross section (N2) ([1]; [M+Na]+): 144.9 Å²
C[n+]1cccc(C(N)=O)c1 [1-Methylnicotinamide],,,,collision cross section (N2) ([1]; [M]+): 126.4 Å²
Nc1ccn([C@H]2C[C@H](O)[C@@H](COP(=O)(O)OP(=O)(O)O)O2)c(=O)n1 [2'-Deoxycytidine diphosphate],170.97,,,collision cross section (N2) ([1]; [M+Na]+): 174.5 Å²
Nc1nc(=O)c2ncn([C@H]3C[C@H](O)[C@@H](COP(=O)(O)O)O3)c2[nH]1 [2'-Deoxyguanosine 5'-monophosphate],,,,collision cross section (N2) ([1]; [M+Na-2H]-): 167.93 Å²; collision cross section (N2) ([1]; [M+Na]+): 169.7 Å²
O=c1nc[nH]c2c1ncn2[C@H]1C[C@H](O)[C@@H](COP(=O)(O)O)O1 [2'-Deoxyinosine 5'-monophosphate],,,,collision cross section (N2) ([1]; [M+Na-2H]-): 161.59 Å²; collision cross section (N2) ([1]; [M+Na]+): 166.8 Å²
CO[C@@H]1[C@H](O)[C@@H](CO)O[C@H]1n1cnc2c(N)ncnc21 [2'-O-methyladenosine],158.37,,,collision cross section (N2) ([1]; [M+Na]+): 168.7 Å²
O=C(O)CNC(=O)c1ccco1 [2-Furoylglycine],134.65,,,
CC(C)C(O)C(=O)O (stereo not given) [2-Hydroxy-3-methylbutyric acid],118.65,,,
Nc1[nH]c(=O)nc2nc[nH]c12 [2-Hydroxyadenine],121.04,,,collision cross section (N2) ([1]; [M+H]+): 127 Å²
CC(C)C(O)(CC(=O)O)C(=O)O (stereo not given) [2-Isopropylmalic acid],128.12,,,collision cross section (N2) ([1]; [M+Na]+): 140.9 Å²
CC(CCC(=O)O)C(=O)O (stereo not given) [2-Methylglutaric acid],123.84,,,
CO[C@H]1[C@@H](O)[C@H](n2cnc3c(=O)nc(N)[nH]c32)O[C@@H]1CO [3'-O-methylguanosine],163.78,,,collision cross section (N2) ([1]; [M+Na]+): 178.1 Å²
"O=C(O)c1ccc([O-])c(O)c1 [3,4-Dihydroxybenzoate]",120.45,,,
"Cn1c(=O)[nH]c(=O)c2c1[nH]c(=O)n2C [3,7-Dimethyluric acid]",133.95,,,
O=C(O)CCc1cccc(O)c1 [3-(3-Hydroxyphenyl)propanoic acid],136.11,,,
Nc1c(O)cccc1C(=O)C[C@H](N)C(=O)O [3-Hydroxy-L-kynurenine],,,,collision cross section (N2) ([1]; [M+H-H2O]+): 137.5 Å²
O=C(O)c1cccc([O-])c1 [3-Hydroxybenzoate],125.4,,,
CC(C)[C@H](C(=O)O)[C@@H](O)C(=O)O [3-Isopropylmalate],127.46,,,
NC(=O)CCCCC1CCSS1 (stereo not given) [LIPOAMIDE],,150.4 Å²,,collision cross section (N2) ([3]; [M+H]+): 139.3 Å²
CC(=O)N1CCC[C@H]1C(=O)O [N-ACETYLPROLINE],,140.3 Å²,133.7,collision cross section (N2) ([3]; [M+Na]+): 136.9 Å²
CCC[C@H](N)C(=O)O [NORVALINE],,133.1 Å²,142,collision cross section (N2) ([2]; [M+H]+): 120.9 Å²
CC[C@H](NC(=O)CC[C@H]([NH3+])C(=O)[O-])C(=O)NCC(=O)[O-] [OPHTHALMATE],,163.4 Å²,160.9,collision cross section (N2) ([2]; [M+H]+): 164.5 Å²; collision cross section (N2) ([2]; [M+Na-2H]-): 163.7 Å²

Structure (SMILES),collision cross section (N2) ([1]; [M-H]-) [Å²],collision cross section (N2) ([2]; [M+Na]+),collision cross section (N2) ([2]; [M-H]-) [Å²],also measured
O=C([O-])c1cc(=O)[nH]c(=O)[nH]1 [OROTATE],,,121.5,
O=C1CC[C@@H](C(=O)O)N1 [OXOPROLINE],,,124.1,collision cross section (N2) ([2]; [M+H]+): 130.3 Å²
O=C(O)Cc1ccc(O)cc1 [P-HYDROXYPHENYLACETATE],,,128.6,
OC[C@H]1O[C@H](OC[C@H]2OC(O)(CO)[C@@H](O)[C@@H]2O)[C@H](O)[C@@H](O)[C@@H]1O (stereo not given in full) [PALATINOSE],,176 Å²,177.9,collision cross section (N2) ([2]; [M+K]+): 177.6 Å²
N[C@@H](Cc1ccccc1)C(=O)O [PHENYLALANINE],,138.3 Å²,139.4,
Cc1ncc(CO)c(CN)c1O [PYRIDOXAMINE],,144.1 Å²,133.9,collision cross section (N2) ([2]; [M+H]+): 133.7 Å²
Oc1ccccc1O [PYROCATECHOL],,,114.5,
O=C1CC[C@@H](C(=O)O)N1 [PYROGLUTAMATE],,,,collision cross section (N2) ([2]; [M+H]+): 130.1 Å²
CC1=C(/C=C/C(C)=C/C=C/C(C)=C/C(=O)O)C(C)(C)CCC1 [RETINOATE],,181.9 Å²,,
Nc1ncnc2c1ncn2[C@@H]1O[C@H](CSCC[C@H](N)C(=O)O)[C@@H](O)[C@H]1O [S-ADENOSYLHOMOCYSTEINE],,189 Å²,186.4,collision cross section (N2) ([2]; [M+H]+): 182.9 Å²; collision cross section (N2) ([2]; [M+Na-2H]-): 180.3 Å²
C[S+](CC[C@H](N)C(=O)[O-])C[C@H]1O[C@@H](n2cnc3c(N)ncnc32)[C@H](O)[C@@H]1O (stereo not given in full) [S-ADENOSYLMETHIONINE],,,,collision cross section (N2) ([2]; [M+H]+): 185.7 Å²
CCCCCCSC[C@H](NC(=O)CC[C@H](N)C(=O)O)C(=O)NCC(=O)O [S-HEXYL-GLUTATHIONE],,200.9 Å²,189,collision cross section (N2) ([2]; [M+H]+): 200.5 Å²; collision cross section (N2) ([2]; [M+Na-2H]-): 192.4 Å²
O=C(O)[C@@H](O)[C@@H](O)[C@H](O)[C@@H](O)C(=O)O [SACCHARATE],,148.3 Å²,133.3,collision cross section (N2) ([2]; [M+K]+): 148.8 Å²; collision cross section (N2) ([2]; [M+Na-2H]-): 137.3 Å²
O=C(O)CCCCCCCCC(=O)O [SEBACATE],,152.7 Å²,,collision cross section (N2) ([2]; [M+Na-2H]-): 146 Å²
C[Se]CCC(N)C(=O)O (stereo not given) [SELENOMETHIONINE],,138.1 Å²,149.9,collision cross section (N2) ([2]; [M+H]+): 135.2 Å²
NCCc1c[nH]c2ccc(O)cc12 [SEROTONIN],,146.9 Å²,,
O=C(O)C1=C[C@@H](O)[C@@H](O)[C@H](O)C1 [SHIKIMATE],,,136.3,
Cc1ncc(C[n+]2csc(CCOP(=O)(O)O)c2C)c(N)n1 [THIAMINE MONOPHOSPHATE],,176.9 Å²,,collision cross section (N2) ([2]; [M+H]+): 171 Å²; collision cross section (N2) ([2]; [M+Na-2H]-): 174.3 Å² and 180.2 Å²
C[n+]1cccc(C(=O)[O-])c1 [TRIGONELLINE],,135.9 Å²,,collision cross section (N2) ([2]; [M+H]+): 124 Å²; collision cross section (N2) ([3]; [M+H]+): 122.4 Å²
N[C@@H](Cc1ccc(O)cc1)C(=O)O [TYROSINE],,143.6 Å²,143.8,collision cross section (N2) ([2]; [M+H]+): 145.8 Å²
O=c1cc[nH]c(=O)[nH]1 [URACIL],,,112.9,
O=c1ccn([C@@H]2O[C@H](COP(=O)(O)OP(=O)(O)O)[C@@H](O)[C@H]2O)c(=O)[nH]1 [URIDINE 5'-DIPHOSPHATE],,178.5 Å² and 181.7 Å²,172.9,collision cross section (N2) ([2]; [M+H]+): 176.9 Å²; collision cross section (N2) ([2]; [M+Na-2H]-): 178.6 Å²
O=C(O)[C@H]1O[C@H](OP(=O)(O)OP(=O)(O)OC[C@H]2O[C@@H](n3ccc(=O)[nH]c3=O)[C@H](O)[C@@H]2O)[C@H](O)[C@@H](O)[C@@H]1O [URIDINE DIPHOSPHATE GLUCURONIC ACID],,211 Å²,211.9,collision cross section (N2) ([2]; [M+Na-2H]-): 204.6 Å²
C[C@H](CCC(=O)O)[C@H]1CC[C@H]2[C@@H]3[C@@H](O)C[C@@H]4C[C@H](O)CC[C@]4(C)[C@H]3CC[C@]12C [URSODEOXYCHOLATE],,198.7 Å²,200.9,
